In patent US20070003480A1, “Liposomal composition comprising haptotactic peptides” (Hapto Biotech, Inc., priority 2002, published 2007):
“Also recorded” adds a separate entry of the source.

Tests used:
BAEC = test: Cell adhesion (haptotaxis) assay, Sepharose bead-bound ligand; format: cell-based, bovine; conditions: ligand bound to Sepharose beads
Description: (§1) The attachment of Sepharose beads (SB)-ligand to cells in nearly confluent cultures grown on plastic was measured as previously described (Gorodetsky R. et al. 1998. J Lab Clin Med 131, 269-280; Gorodetsky R. et al. 1999. J Invest Dermatol 112:866-872). Essentially, about 20-150 μl of suspended (50% v/v) SB-Haptide or SB-fibrinogen were added to near confluent cell cultures in 6-24 well plates and dispersed by gentle shaking for 1 min. The plates were then incubated for up to 4 days. After one day the number of SB tethered to cell layer was counted with an inverted phase or Numarsky microscopy. Typically, ˜300 SB (but not less then 200) were counted in each well, and the ratio of the number of SB attached to the cells in each well, was calculated relative to the total number of SB. At least 3 wells were measured for each variant and each experiment was repeated at least 3 times.

HF = test: as above; format: cell-based, human; conditions: ligand bound to Sepharose beads
Description: as §1

human fibroblasts (HF) = test: Uptake of FITC-labelled peptides by cells, confocal laser fluorescence microscopy; format: cell-based; conditions: visual score (0-4) from fluorescence micrographs; FITC-labelled ligand 100 μg/ml (40 μM), 1 h, 37° C.
Description: Fluorescent microscopy was carried out with Olympus or Nikon fluorescence microscopes. Confocal laser microscopy was done with a computerized Zeiss Confocal Axiomate microscope (LSM410) with multiple excitation wavelengths. Peptides were tagged with fluorescein isothiocyanate (FITC) for visualization. For examination of ^FITCpeptides uptake by human fibroblasts (HF) the cells were grown on glass coverslips to near confluence and then incubated with 100 μg/ml (40 μM) ^FITCpeptides at 37° C. After 1 h, the cells were washed and fixed in 0.5% buffered glutaraldehyde. Coverslips with the cells were placed on a microscope slide with PBS-glycerol 80% with 2% DABCO and examined. The representative fields of cells were visualized by Numarski optics and confocal scans of cell fluorescence intensity in 1 μm slices were recorded at the FITC wavelength (excitation 488 nm, emission 515 nm) and later reconstructed. Uptake of ^FITCligand by HF was scored visually (0-4). The fluorescent haptotactic peptides were clearly seen taken up by the HF cells, and the nuclei remained relatively free of ^FITCHaptide (FIGS. 1A & B). […] By contrast, the uptake of the control ^FITCCα peptide by the cells was negligible.

Human fibroblasts = test: Haptide-mediated liposome uptake by human fibroblasts, fluorescence microscopy; format: cell-based; conditions: for liposome uptake into the cytoplasm of fibroblasts: rhodamine-loaded liposomes, FIG. 4
Description: (§2) Human fibroblasts or bovine aortic endothelial cells were seeded and grown in CO2 incubator for 24 hours in a 4-chamber cell culture coverslip slide (source) used for microscopy. Then, they were exposed to either free ^FITCHaptide or to a ^FITCHaptotactic Peptide-Liposomal composition. Two liposome types were examined, namely liposomes composed of hydrogenated phosphatidyl serine, PEG and cholesterol, containing the fluorescent dye Rhodamine; and clinical grade liposomes containing the anti-cancer drug doxorubicin (Doxil liposomes). Both rhodamine and doxorubicin are fluorescent compounds. Thus, the liposome penetration and distribution within cells could be tracked by fluorescence microscopy or FACS. Typically, 20 μl of fluorescent Haptotactic Peptide-Liposomal composition were mixed with 180 μl PBS and added to the cell chamber. Incubation was continued for up to 1 hour at 37 or 4° C. The incubation was stopped at different time points by two subsequent washes with PBS, followed by fixation with 500 μl of 4% formaldehyde for 1 hr. The samples were then washed again with PBS. Coverslips with the fixed cells were covered by PBS-glycerol 80%, DABCO 2%, and an additional coverslip for microscopic examination.

[1] = tested on: bovine aortic endothelial cells; test: Haptide-mediated Doxil liposome uptake by bovine aortic endothelial cells, fluorescence microscopy; format: cell-based; conditions: Doxil (doxorubicin-loaded) liposomes; FIG. 5
Description: as §2

[2] = Particle size by dynamic light scattering; format: physicochemical; conditions: Haptide solution 1 mg/mL, 0.45 μm filtered, 25° C., mean of three measurements
Description: It has been previously observed by gel filtration that haptides tend to form aggregates (Gorodetsky R, Vexler A, Shamir M, An J, Levdansky L, Shimeliovich I, Marx G. Exp Cell Res. 287:116-129 (2003). A solution of the Haptide preCγ (1 mg/mL) was passed through a 0.45 μm filter and then measured by dynamic light scattering at 25° C. The average particle size (a mean value of three measurements) was ˜145 nm (FIG. 3), showing that such particle is an aggregate of few hundreds of preCγ monomers.
Similarly, Doxil liposomes were measured and observed to have a mean diameter of 80 nm. However, when the preCγ-liposomal composition was formed, the preCγ Haptides aggregates disappeared in correlation with the liposome/Haptide weight ratio (FIG. 3). […] At a doxil/haptide weight ratio of >10^−2, the almost totally all the Haptides aggregates were solubilized within the liposomes as indicated by the disappearance of larger Haptide particles, forming the haptotactic-peptide liposomal composition.

| Substance | % Haptotaxis (BAEC, 1 day) (BAEC) [%] | % Haptotaxis (HF, 1 day) (HF) [%] | Cell Uptake (HF) (human fibroblasts (HF)) | concentration-dependent liposome uptake by human fibroblasts (Human fibroblasts; Doxorubicin-loaded liposomes, varying Haptide concentration, FIG. 6) | liposome uptake into the cytoplasm of fibroblasts (Human fibroblasts) | liposome uptake into endothelial cells [1] | average particle size [2] [nm] |
| --- | --- | --- | --- | --- | --- | --- | --- |
| fibrinogen | 100 | 100 | +2 |  |  |  |  |
| KGSWYSMRKMSMKIRPFFPQQ (Equivalent to the c-terminus of fibrinogen beta-chain) [Cβ] | 100 | 100 | +4 | increased liposome uptake; also recorded: directly correlated to the Haptide (Cβ) concentration | facilitated liposome uptake | facilitated liposome uptake |  |
| RGADYSLRAVRMKIRPLTVTQ (Equivalent to the c-terminus of fibrinogen alphaE chain) [CαE] | 75 | 60 | +3 |  | Low induction | efficient in enhancing doxorubicin-liposome (Doxil) uptake |  |
| KTRWYSMKKTTMKIIPFNRL (Equivalent to the c-terminus of fibrinogen pre-gama chain) [preCγ] |  |  |  |  | facilitated liposome uptake | facilitated liposome uptake | ~145 |
